Drawing on patent US9150528B2, “Compound having detrusor muscle-contracting activity and urethral sphincter muscle-relaxing activity” (ONO PHARMACEUTICAL CO., LTD., priority 2009, dated 2015), this text covers bladder capacity and residual urinary volume for one compound.

Each structure is given as a SMILES string.

In the series the test system is underactive bladder models. The experiment in a line: Residual urinary volumes and bladder capacities in underactive bladder models (cystometry). It is filed as in vivo, rat. The following applies: 0.01 mg/kg, oral, underactive bladder model rats. The protocol: The underactive bladder models were constructed in accordance with the following procedure. Female Wistar rats (8 to 9 weeks age) were anesthetized by intraperitoneal administration of Somnopentyl (40 mg/kg), followed by dorsal shaving, and fixed in abdominal positions. Each of the dorsal areas was disinfected with chlorhexidine gluconate (5% hibitane liquid). The waist area was median-incised to expose the spinal column. After excision of the fifth lumbar spinous process, a silicone rubber was inserted into the sixth lumbar direction from a hole bored by a mini drill. For the purpose of avoiding infections, after completion of the surgical operation, benzylpenicillin potassium (25000 U/0.25 mL/body) was added dropwise to the incised area. The muscle and skin of the incised area were sutured with silk threads, and iodine tincture was applied to the sutured area. After the operation, maintenance of voiding was carried out by manual compressions three times daily. For the purpose of avoiding infections, potassium penicillin G (1.25 units/body) was administered subcutaneously. More than 5 days prior to cystometric evaluation, a catheter for cystometrogram was indwelled in the bladder. Anesthesia with sodium pentobarbital (40 mg/kg by intraperitoneal administration) and incision along the midline of the abdomen were carried out, followed by incision of the apex of the bladder. A catheter for cystometrogram filled with physiological saline was inserted into the bladder from a hole of the apical area, and fixed by ligation using silk suture threads. […]
The rats were anesthetized with ether and housed in a Bollmann cage 2 weeks after the construction of the models. To the front end of each of the bladder catheters, a pressure transducer via a three-way cock was connected, and the intravesical pressure was recorded using a strain pressure amplifier•recorder. […]
[…] After 1 hr, physiological saline was perfused into the bladder at a flow rate of 2 mL/h and voiding parameters (bladder capacity and residual urinary volume) were measured. […] Voiding parameters were calculated for each cystometry. […]

As for `C[C@@](O)(C/C=C/[C@H]1CCC(=O)[C@@H]1CCSc1nc(C(=O)O)cs1)CCC(F)=C(F)F` [Compound 17, 2-[(2-{(1R,5R)-2-oxo-5-[(1E,4S)-7,8,8-trifluoro-4-hydroxy-4-methyl-1,7-octadien-1-yl]cyclopentyl}ethyl)thio]-1,3-thiazole-4-carboxylic acid], the bladder capacity entry (versus normal group) was “no effect”. Also, the residual urinary volume result (versus vehicle group) is recorded as “significant reduction”.
